Experimental data published in patent US6239134A, “Diazole derivatives as serotonergic agents” (American Home Products Corp., priority 2000, dated 2001).
Where a name gives a salt, the structure may show the parent alone. Read-outs that look alike come from different tables or passages of the source.

Key:
human 5HT1A receptor [1] = target: T1, human 5HT1A receptor (Homo sapiens, UniProt P08908); test: 5-HT1A Receptor Intrinsic Activity Assay (agonist mode; reversal of stimulated cAMP in stably transfected CHO cells); assay type: cell-based; details: read-out: cAMP Emax
T1 construct: expressed in transfected cells; host or cells: CHO cells, stably transfected
T1 sequence (P08908 1-422): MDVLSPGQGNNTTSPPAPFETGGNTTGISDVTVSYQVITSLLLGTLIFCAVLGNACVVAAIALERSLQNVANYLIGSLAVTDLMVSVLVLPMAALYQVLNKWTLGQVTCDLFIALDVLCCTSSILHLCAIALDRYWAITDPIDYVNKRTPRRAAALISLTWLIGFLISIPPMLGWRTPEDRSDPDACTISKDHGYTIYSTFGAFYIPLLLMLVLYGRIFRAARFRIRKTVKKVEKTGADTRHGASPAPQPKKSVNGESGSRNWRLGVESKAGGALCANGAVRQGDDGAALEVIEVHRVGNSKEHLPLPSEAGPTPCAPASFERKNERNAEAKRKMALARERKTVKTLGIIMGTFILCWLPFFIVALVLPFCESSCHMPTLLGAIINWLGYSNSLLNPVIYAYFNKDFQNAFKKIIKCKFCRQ
Experimental: 5-HT1A Receptor Intrinsic Activity Assay
The intrinsic activity of compounds of the present invention was established by testing the claimed compounds ability to reverse the stimulation of cyclic adenosinemonophosphate (cAMP) in CHO cells stably transfected with the human 5-HT1A receptor.
Stably transfected CHO cells were grown in DMEM containing 10% heat inactivated FBS and non-essential amino acids. The cells are plated at a density of […] per well in a 24 well plate and incubated for 2 days in a CO2 incubator. On the second day, the media is replaced with 0.5 mL treatment buffer (DMEM+25 mM HEPES, 5 mM theophylline, […] pargyline) and incubated for 10 minutes at 37° C. Wells are treated with forskolin ([…]) followed immediately by the test compound ([…] for initial screen) and incubated for an additional 10 minutes at 37° C. The reaction is terminated by removal of the media and addition of 0.5 mL ice cold assay buffer (supplied in the RIA kit). Plates are stored at -20° C. prior to assessment of cAMP formation by RIA. EC50 values are determined for the active test compounds. Compounds shown to have no agonist activities (Emax=0%) are further analyzed for their ability to reverse agonist induced activity. In separate experiments, 6 concentrations of antagonist are preincubated for 20 minutes prior to the addition of agonist and forskolin. Cells are harvested as described above. The cAMP kit is supplied by Amersham and the RIA is performed as per kit instructions, and calculations of IC50 performed by GraphPad Prism.

human 5HT1A receptor [2] = target: T1, human 5HT1A receptor; test: 5-HT1A Receptor Binding Assay (displacement of [3H] 8-OH-DPAT in stably transfected CHO cells); details: @ 1 _M, single point assay
Experimental: 5-HT1A Receptor Binding Assay
High affinity for the serotonin 5-HT1A receptor was established by testing the claimed compound's ability to displace [3H] 8-OH-DPAT binding in CHO cells stably transfected with the human 5HT1A receptor. Stably transfected CHO cells are grown in DMEM containing 10% heat inactivated FBS and non-essential amino acids. Cells are scraped off the plate, transferred to centrifuge tubes, and washed twice by centrifugation (2000 rpm for 10 min., 4° C.) in buffer (50 mM Tris pH 7.5). The resulting pellets are aliquoted and placed at -80° C. On the day of assay, the cells are thawed on ice and resuspended in buffer. The binding assay is performed in a 96 well microtiter plate in a total volume of […]. Non-specific binding is determined in the presence of […], final ligand concentration is 1.5 nM. Following a 30 minute incubation at room temperature, the reaction is terminated by the addition of ice cold buffer and rapid filtration through a GF/B filter presoaked for 30 minutes in 0.5% PEI. Compounds are initially tested in a single point assay to determine percent inhibition at […], and Ki values are determined for the active compounds.

[3] = forskolin-stimulated cAMP, CHO cells

Row | Emax (human 5HT1A receptor [1]; [3]) [%] | SMILES | further results
1 | 0 | COc1nsnc1N1CCN(C[C@@H](Cc2ccccc2)N(C)C(=O)C2CCCCC2)CC1 [Compound 8, Cyclohexanecarboxylic acid {(1R)-1-benzyl-2-[4-(4-methoxy-[1,2,5]thiadiazol-3-yl)-piperazine-1-yl]ethyl}methyl amide] | 
2 |  | O=C(N[C@@H](Cc1ccccc1)CN1CCN(c2nsnc2Cl)CC1)c1ccccn1 [Compound 6, Pyridine-2-carboxylic acid {(1S)-1-benzyl-2,3-[4(4-chloro[1,2,5]thiadiazol-3-yl)piperazin-1-yl]ethyl}amide] | 5-HT1A binding, percent inhibition (human 5HT1A receptor [2]): 47%
3 |  | O=C(N[C@@H](Cc1ccccc1)CN1CCN(c2nsnc2Cl)CC1)C1CCCCC1 [Compound 4, Cyclohexanecarboxylic acid {(1S)-1-benzyl-2-(4-(4-chloro[1,2,5}thiadiazol-3-yl)piperazin-1-yl]ethyl}amide fumarate] | Emax (human 5HT1A receptor [1]; CHO): 93%
4 | 0 | COc1nsnc1N1CCN(C[C@@H](Cc2cccnc2)NC(=O)C2(C)CCCCC2)CC1 [Compound 11, 1-Methylcyclohexanecarboxylic acid {(1R)-2-[4-(4-methoxy-[1,2,5]thiadiazol-3-yl)-piperazin-1-yl]-1-pyridin-3-ylmethylethyl}amide] | 
5 | 0 | CN(C(=O)C1CCCCC1)[C@H](Cc1ccccc1)CN1CCN(c2nsnc2Cl)CC1 [Compound 7] | 
